From ChEMBL document CHEMBL1828590 (J Med Chem, 2011) come the findings set out here.

As usually defined, the Ki is the equilibrium dissociation constant of an inhibitor or competing ligand from its target. Usually IC50 stands for the point on the concentration scale where inhibition reaches its midpoint. As usually defined, the MTD is the highest dose tested that stayed within the study's limit of toxicity. For orientation: Papp B→A means the apparent permeability from the basolateral to the apical side of a cell layer. In general, logD refers to lipophilicity at a set pH, counting ionised and neutral species. Usually Tmax stands for the time at which the peak concentration occurs. A word on the AUC(0-inf): it is the area under the concentration-time curve extrapolated to infinity.

Data set [1] concerns the target T1, Histone deacetylase 8 (Homo sapiens, UniProt Q9BY41).
T1 sequence (Q9BY41 whole entry): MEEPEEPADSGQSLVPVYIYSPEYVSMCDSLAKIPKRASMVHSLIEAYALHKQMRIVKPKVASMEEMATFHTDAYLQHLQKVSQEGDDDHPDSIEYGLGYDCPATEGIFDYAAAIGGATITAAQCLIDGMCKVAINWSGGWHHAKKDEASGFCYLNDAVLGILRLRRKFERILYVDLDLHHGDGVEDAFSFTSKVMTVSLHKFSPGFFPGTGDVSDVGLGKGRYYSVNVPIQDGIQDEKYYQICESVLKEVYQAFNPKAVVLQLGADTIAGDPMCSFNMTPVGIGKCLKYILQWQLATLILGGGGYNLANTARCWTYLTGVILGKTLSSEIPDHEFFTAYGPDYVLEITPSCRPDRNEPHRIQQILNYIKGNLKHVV
Description: Competitive inhibition of HDAC8 using KI-104 as substrate by fluorescence assay

Data set [2] deals with PC-3. Nature of the data set: Antiproliferative activity against human PC3 cells after 96 hrs by celltiter 96 assay. The format is functional, cell-based. As to conditions: PC-3, 96 h.
The target of data set [3] is T2, Cytochrome P450 3A4 (Homo sapiens, UniProt P08684). Nature of the data set: Inhibition of CYP3A4 in human liver microsomes. A general note: Microsomes from liver hold many membrane-bound enzymes, among them those of drug oxidation.
T2 sequence (P08684 whole entry): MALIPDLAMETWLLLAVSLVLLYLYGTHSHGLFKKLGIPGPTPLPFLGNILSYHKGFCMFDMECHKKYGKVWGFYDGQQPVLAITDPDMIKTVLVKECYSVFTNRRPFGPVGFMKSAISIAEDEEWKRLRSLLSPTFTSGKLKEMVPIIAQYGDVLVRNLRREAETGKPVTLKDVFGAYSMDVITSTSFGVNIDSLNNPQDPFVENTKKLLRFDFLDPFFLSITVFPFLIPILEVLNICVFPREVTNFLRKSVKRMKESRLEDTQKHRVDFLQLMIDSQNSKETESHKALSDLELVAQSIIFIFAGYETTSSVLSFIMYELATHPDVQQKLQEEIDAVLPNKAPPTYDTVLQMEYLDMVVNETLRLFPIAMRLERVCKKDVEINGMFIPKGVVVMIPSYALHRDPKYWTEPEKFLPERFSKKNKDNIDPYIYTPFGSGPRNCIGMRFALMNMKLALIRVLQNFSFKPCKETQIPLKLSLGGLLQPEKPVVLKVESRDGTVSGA
Data set [4] in a line: Oral bioavailability in Beagle dog at 10 mg/kg. The class given is ADME, organism-based, Canis lupus familiaris. As to conditions: in vivo.
Data set [5] addresses T3, Protein deacetylase HDAC6 (Homo sapiens, UniProt Q9UBN7).
T3 sequence (Q9UBN7 whole entry): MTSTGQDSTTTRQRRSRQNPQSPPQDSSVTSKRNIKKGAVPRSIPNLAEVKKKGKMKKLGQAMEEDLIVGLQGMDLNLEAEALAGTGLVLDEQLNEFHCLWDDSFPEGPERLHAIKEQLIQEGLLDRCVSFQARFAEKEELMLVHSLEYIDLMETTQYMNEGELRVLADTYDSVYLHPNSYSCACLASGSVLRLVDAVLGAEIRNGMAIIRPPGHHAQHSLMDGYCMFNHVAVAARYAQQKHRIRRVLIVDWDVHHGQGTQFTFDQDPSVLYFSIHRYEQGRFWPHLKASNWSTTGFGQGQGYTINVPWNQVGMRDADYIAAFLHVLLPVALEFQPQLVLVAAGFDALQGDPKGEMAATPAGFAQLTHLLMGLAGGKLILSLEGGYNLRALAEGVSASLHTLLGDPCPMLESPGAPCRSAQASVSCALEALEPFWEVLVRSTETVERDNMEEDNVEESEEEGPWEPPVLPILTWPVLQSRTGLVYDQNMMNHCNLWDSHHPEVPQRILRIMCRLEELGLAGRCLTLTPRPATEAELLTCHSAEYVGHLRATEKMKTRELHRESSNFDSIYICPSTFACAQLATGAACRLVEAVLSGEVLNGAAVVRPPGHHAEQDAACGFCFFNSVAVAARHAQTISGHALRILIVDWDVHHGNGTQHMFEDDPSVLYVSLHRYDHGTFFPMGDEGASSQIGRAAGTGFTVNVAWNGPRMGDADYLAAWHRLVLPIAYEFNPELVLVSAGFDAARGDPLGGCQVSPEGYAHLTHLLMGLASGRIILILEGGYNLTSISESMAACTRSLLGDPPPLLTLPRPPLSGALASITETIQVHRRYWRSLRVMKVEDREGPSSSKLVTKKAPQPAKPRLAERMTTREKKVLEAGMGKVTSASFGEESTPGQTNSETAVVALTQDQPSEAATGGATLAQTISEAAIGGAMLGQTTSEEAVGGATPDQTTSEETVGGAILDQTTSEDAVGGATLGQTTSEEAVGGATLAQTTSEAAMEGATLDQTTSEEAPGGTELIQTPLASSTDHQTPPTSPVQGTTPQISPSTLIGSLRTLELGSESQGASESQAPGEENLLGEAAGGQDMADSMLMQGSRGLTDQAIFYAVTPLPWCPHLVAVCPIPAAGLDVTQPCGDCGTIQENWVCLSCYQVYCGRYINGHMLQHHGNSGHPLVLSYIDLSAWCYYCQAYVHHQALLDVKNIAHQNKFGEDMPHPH
Description: Competitive inhibition of HDAC6 using KI-104 as substrate by fluorescence assay

For data set [6], the system named is HCT-116. Kind of data set: Antiproliferative activity against human HCT116 cells after 96 hrs by celltiter 96 assay. The format is functional, cell-based. As to conditions: HCT-116, 96 h.
Data set [7] relates to A2780. Nature of the data set: Antiproliferative activity against human A2780 cells after 96 hrs by celltiter 96 assay. The class given is functional, cell-based. Particulars: A2780, 96 h.
The target of data set [8] is T2, Cytochrome P450 3A4. Nature of the data set: Inhibition of recombinant CYP3A4 after 30 mins by fluorescence assay. The format is ADME.
Data set [9] has as its target Cytochrome P450 2D6 (Homo sapiens, UniProt P10635). Nature of the data set: Inhibition of CYP2D6 in human liver microsomes by fluorescence assay. The format is ADME, Microsome.
Data set [10] in a line: Oral bioavailability in nude BALB/c mouse at 50 mg/kg. As to conditions: in vivo. The format is ADME, organism-based.
Data set [11] deals with Histone deacetylase 1 (Homo sapiens, UniProt Q13547).
Chain of Histone deacetylase 1 (Q13547 whole entry): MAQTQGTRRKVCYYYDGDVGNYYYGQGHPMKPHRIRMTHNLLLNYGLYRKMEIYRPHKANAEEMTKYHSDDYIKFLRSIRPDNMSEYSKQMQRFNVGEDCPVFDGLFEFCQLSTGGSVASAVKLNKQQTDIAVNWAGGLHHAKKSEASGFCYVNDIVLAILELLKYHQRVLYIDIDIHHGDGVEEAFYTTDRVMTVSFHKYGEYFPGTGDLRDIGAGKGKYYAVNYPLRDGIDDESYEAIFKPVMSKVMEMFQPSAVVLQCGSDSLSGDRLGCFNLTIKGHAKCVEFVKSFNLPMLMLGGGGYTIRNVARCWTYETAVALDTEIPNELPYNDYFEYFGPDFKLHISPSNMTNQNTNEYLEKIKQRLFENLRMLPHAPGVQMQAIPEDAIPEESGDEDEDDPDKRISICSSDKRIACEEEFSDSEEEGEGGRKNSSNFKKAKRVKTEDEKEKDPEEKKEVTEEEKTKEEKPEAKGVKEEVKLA
Description: Inhibition of full length recombinant HDAC1 using Fluor de Lys as substrate by fluorescence assay
The nature of data set [12]: Oral bioavailability in Wistar rat at 10 mg/kg. The class given is ADME, organism-based. Particulars: in vivo.
In data set [13] the target is Histone deacetylase 3 (Homo sapiens, UniProt O15379).
Chain of Histone deacetylase 3 (O15379 whole entry): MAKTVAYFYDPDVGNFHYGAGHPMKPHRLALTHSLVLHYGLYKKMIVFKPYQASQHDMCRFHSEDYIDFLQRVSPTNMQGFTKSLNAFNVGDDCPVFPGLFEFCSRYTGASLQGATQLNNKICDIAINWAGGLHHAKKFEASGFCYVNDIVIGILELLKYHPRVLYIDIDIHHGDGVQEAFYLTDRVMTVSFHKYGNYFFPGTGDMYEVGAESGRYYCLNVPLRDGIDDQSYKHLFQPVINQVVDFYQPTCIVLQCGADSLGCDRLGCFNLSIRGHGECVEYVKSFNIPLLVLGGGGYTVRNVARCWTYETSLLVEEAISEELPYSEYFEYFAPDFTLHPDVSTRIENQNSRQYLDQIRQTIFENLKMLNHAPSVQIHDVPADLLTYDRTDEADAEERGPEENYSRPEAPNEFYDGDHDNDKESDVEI
Description: Competitive inhibition of HDAC3 using KI-104 as substrate by fluorescence assay
Data set [14] in a line: Toxicity in po dosed athymic nu/nu Harlan mouse with xenografted human HCT116 cells assessed as maximum tolerated administered qd for 21 days. The format is organism-based, HCT-116. Particulars: in vivo. On the technique in general: A xenograft is tissue or cells of one species grown in another, often human tumour cells in immunodeficient mice.
The nature of data set [15]: Apparent permeability from basolateral to apical side of human Caco2 cells. The class given is ADME, cell-based. Particulars: Caco-2. (In general: Passage across Caco-2 layers is used to estimate intestinal permeability.)
Data set [16] has as its system Mus musculus. Kind of data set: Toxicity in nude BALB/c mouse xenografted with human A2780 cells assessed as maximum body weight loss at 100 mg/kg, po QD for 21 days measured on day 20. Also on record: dose 100 mg/kg, route oral. The class given is organism-based. As to conditions: in vivo, 504 h.
Data set [17] has as its system Mus musculus. Kind of data set: Toxicity in nude BALB/c mouse xenografted with human A2780 cells assessed as mortality at 50 mg/kg, po QD for 21 days measured on day 9. As to conditions: in vivo, 504 h. Also on record: dose 50 mg/kg, route oral. The class given is organism-based.
Data set [18] has as its system PC-3. Kind of data set: Antiproliferative activity against human PC3 cells. The format is functional, cell-based.
Data set [19] has as its system Mus musculus. Nature of the data set: Toxicity in nude BALB/c mouse xenografted with human PC3 cells assessed as mortality at 50 mg/kg, po QD for 21 days measured on day 22. The format is organism-based, PC-3. Also on record: dose 50 mg/kg, route oral. As to conditions: in vivo, 504 h.
Data set [20] can be described thus: Terminal half life in Wistar rat at 2 mg/kg, iv. The class given is ADME, organism-based. Also on record: dose 2 mg/kg, route intravenous. As to conditions: in vivo, read-out: beta t1/2 (converted).
Data set [21] concerns HCT-116. Kind of data set: Antitumor activity against human HCT116 cells xenografted in nude BALB/c mouse assessed as tumor growth inhibition at 100 mg/kg, po qd for 21 days. The format is functional. As to conditions: HCT-116, 504 h, read-out: TGI.
Data set [22] can be described thus: 1-Octanol-sodium phosphate buffer distribution coefficient, log D of the compound at pH 7.4. The class given is physicochemical. As to conditions: 1-octanol/sodium phosphate buffer, read-out: logD.
A short description of data set [23]: Tmax in Wistar rat at 10 mg/kg, po. As to conditions: in vivo. The class given is ADME, organism-based. On the set-up: dose 10 mg/kg, route oral.
In data set [24] the test system is Mus musculus. Nature of the data set: Toxicity in nude BALB/c mouse xenografted with human HCT116 cells assessed as mouse survival at 100 mg/kg, po QD for 21 days measured on day 22. The format is organism-based, HCT-116. On the set-up: dose 100 mg/kg, route oral. Particulars: in vivo, 504 h.
Data set [25] has as its system HCT-116. Nature of the data set: Antitumor activity against human HCT116 cells xenografted in nude BALB/c mouse assessed as tumor growth inhibition at 50 mg/kg, po qd for 21 days. The format is functional. Particulars: HCT-116, 504 h, read-out: TGI.
Data set [26] is described as follows: AUC (0 to infinity) in Beagle dog at 10 mg/kg, po. The format is ADME, organism-based, Canis lupus familiaris. Also on record: time infinity, dose 10 mg/kg, route oral. Particulars: plasma.

The structures appear in SMILES notation. Bounds are passed on as bounds.

Chain of Cytochrome P450 2D6 (P10635 whole entry): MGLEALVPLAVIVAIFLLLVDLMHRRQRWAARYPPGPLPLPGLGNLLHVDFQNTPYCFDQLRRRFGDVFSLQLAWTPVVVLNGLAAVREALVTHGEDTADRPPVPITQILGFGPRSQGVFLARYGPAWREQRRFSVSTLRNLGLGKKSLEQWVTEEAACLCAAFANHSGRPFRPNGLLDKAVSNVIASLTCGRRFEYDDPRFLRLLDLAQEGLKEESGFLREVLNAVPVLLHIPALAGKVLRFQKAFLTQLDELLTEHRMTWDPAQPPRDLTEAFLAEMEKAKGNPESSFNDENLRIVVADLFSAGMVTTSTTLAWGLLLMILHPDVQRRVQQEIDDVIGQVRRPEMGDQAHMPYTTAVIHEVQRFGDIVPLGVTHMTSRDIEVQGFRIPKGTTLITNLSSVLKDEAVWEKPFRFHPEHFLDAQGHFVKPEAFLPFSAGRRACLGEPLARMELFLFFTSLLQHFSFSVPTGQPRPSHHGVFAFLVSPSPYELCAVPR

In the case of `CN(C)CC(C)(C)Cn1c(CC(C)(C)C)nc2cc(/C=C/C(=O)NO)ccc21`, the figures for the Ki in data set [1], in [5] and in data set [13] were 65 nM, 94 nM and 20 nM, respectively. Besides, the IC50 in [2] was 500 nM; in data set [3], greater than 25000 nM; in data set [6] it was 800 nM; in [7], 440 nM; in [8], 2280 nM; in data set [9] it was 13900 nM. In data set [11], this compound registered an IC50 of 46 nM. Also, the bioavailability in data set [4] was 110%; in [10] it was 51%; in [12], 4%.
Take `CCCCCCc1nc2cc(/C=C/C(=O)NO)ccc2n1CCN(C)C`: the Ki in data set [1] was found to be 136 nM; in data set [5] it was 300 nM; in data set [13], 20 nM. The IC50 was 250 nM in [2]; greater than 25000 nM in [3]; 330 nM in data set [6]; 230 nM in data set [7]; 330 nM in data set [8]; greater than 25000 nM in data set [9]. In data set [11], this compound came in with a concentration for half-maximal inhibition (IC50) of 28 nM. The MTD at 504 h in data set [14] worked out at 200 mg/kg.
Consider `CCCCc1nc2cc(/C=C/C(=O)NO)ccc2n1CCN(CC)CC.Cl.Cl`, for which the Papp B→A in data set [15] worked out at 19.4 ×10⁻⁶ cm/s. For the same compound, the IC50 in data set [2] is 340 nM; in data set [18], 340 nM; in [6] it was 480 nM; in data set [7], 480 nM; in data set [9], greater than 25000 nM. The Activity is given as 20% in [16], “Non-toxic” in [17], “Non-toxic” in data set [19] and “Non-toxic” in data set [24]. Further, the maximum tolerated dose (MTD) at 504 h in [14] was 50 mg/kg. Moreover, the bioavailability was 65% in [4], 34% in [10] and 3.1% in data set [12]. Also, affinity in data set [5] was put at a Ki of 247 nM. The half-life in data set [20] was 53.4 min. For the same compound, the inhibition in vivo at 100 mg/kg in data set [21] worked out at 90%. Moreover, in data set [22], the logD is 2.07. The Tmax in data set [23] stood at 14.4 min. The inhibition in vivo at 50 mg/kg in data set [25] worked out at 66%. The compound further returned an AUC(0-inf) in data set [26] of 10.5 µM·h.
